Patent US10696707B2, “Polyene macrolide derivative” (Shionogi & Co., Ltd., priority 2014, dated 2020)
pIC50: −log10 of the molar value.

System: red blood cells (5% RBC suspension)
Assay: Test Example 2-2: in vitro hemolytic activity test (upper limit 200 μmol/L)
Format: cell-based
Details: Test Example 2-2; hemolysis method 200 (upper concentration 200 μmol/L); 5% RBC suspension, 37° C., one hour; read-out: hemolysis IC50
Method: Nephrotoxic potentials of the compounds of the present invention whose X is —N(R^F)—CO—X^1 and X^1 is the group represented by formula (III) and T is —N(R^a5)— were investigated by in vitro hemolytic activity test under the condition that the upper limit was 200 μmol/L as the required concentration to 50% of hemolysis (IC50).
Defibrinated sterile blood was centrifuged at 700×g for 3 minutes and, and the supernatant was removed for 100% of red blood cells. After the cleaning with physiological saline, the washed blood cells was suspended in the medium (Earle's balanced salt sodium, bicarbonate, 0.1 g/L L-glutamine without phenol red), and was diluted by 5% (5% RBC suspension).
The washed blood was diluted by 5% in water for injection (solution of complete hemolysis), and was used as the indication of optical density for complete hemolysis.
The compounds of the present invention solution in DMSO (several and doubling dilutions starting from 10 mmol/L), DMSO as the negative control, and Amphotericin B as the positive control were used, and each 5 μL of these was added in to a well of V-form 96 well type microplate. Finally, the maximum concentration of the compounds of the present invention solution in DMSO was 200 μmol/L by adding 245 μL of the medium or 5% RBC suspension into the well.
Two hundred fifty μL of the solution of complete hemolysis was added into another well and the microplate was incubated at 37° C. in 5% of CO2 concentration for an hour.
After the incubation, each 100 μL of supernatants in wells was collected by centrifugation of the microplate at 300×g for 5 minutes and was located on a well of flat-form 96 well type microplate. An absorbance of each supernatant was measured at wavelength of 540 nm.
Percent hemolysis was calculated by using the followed equation. The required concentration to 50% of hemolysis (IC50) was calculated based on the percent hemolysis. […] Hemolysis (%)=(CR−VM)×100÷(VL−VR) Where:
CR: Absorbance of 5% RBC suspension incubated with the compounds of the present invention solution in DMSO
VM: Absorbance of medium incubated with the compounds of the present invention solution in DMSO
VL: Absorbance of solution of complete hemolysis
VR: Absorbance of 5% RBC suspension incubated with DMSO
The “>200” in the table means above IC50 value exceeded the upper concentration 200 μmol/L.

SMILES	pIC50
C[C@@H]1[C@H](O)[C@@H](C)/C=C/C=C/C=C/C=C/C=C/C=C/C=C/[C@H](O[C@@H]2O[C@H](C)[C@@H](O)[C@H](N)[C@@H]2O)C[C@@H]2O[C@](O)(C[C@@H](O)C[C@@H](O)[C@H](O)CC[C@@H](O)C[C@@H](O)CC(=O)O[C@H]1C)C[C@H](O)[C@H]2NC(=O)NNC(=O)c1ccccn1 [I-44]	< 3.70
C[C@@H]1[C@H](O)[C@@H](C)/C=C/C=C/C=C/C=C/C=C/C=C/C=C/[C@H](O[C@@H]2O[C@H](C)[C@@H](O)[C@H](N)[C@@H]2O)C[C@@H]2O[C@](O)(C[C@@H](O)C[C@@H](O)[C@H](O)CC[C@@H](O)C[C@@H](O)CC(=O)O[C@H]1C)C[C@H](O)[C@H]2NC(=O)NNC(=O)c1cccnc1N [I-198]	< 3.70
C[C@@H]1[C@H](O)[C@@H](C)/C=C/C=C/C=C/C=C/C=C/C=C/C=C/[C@H](O[C@@H]2O[C@H](C)[C@@H](O)[C@H](N)[C@@H]2O)C[C@@H]2O[C@](O)(C[C@@H](O)C[C@@H](O)[C@H](O)CC[C@@H](O)C[C@@H](O)CC(=O)O[C@H]1C)C[C@H](O)[C@H]2NC(=O)NNC(=O)CNC(=O)Nc1cccnc1 [I-123]	< 3.70
C[C@@H]1[C@H](O)[C@@H](C)/C=C/C=C/C=C/C=C/C=C/C=C/C=C/[C@H](O[C@@H]2O[C@H](C)[C@@H](O)[C@H](N)[C@@H]2O)C[C@@H]2O[C@](O)(C[C@@H](O)C[C@@H](O)[C@H](O)CC[C@@H](O)C[C@@H](O)CC(=O)O[C@H]1C)C[C@H](O)[C@H]2NC(=O)NNC(=S)Nc1ccccc1 [I-216]	< 3.70
C[C@@H]1[C@H](O)[C@@H](C)/C=C/C=C/C=C/C=C/C=C/C=C/C=C/[C@H](O[C@@H]2O[C@H](C)[C@@H](O)[C@H](N)[C@@H]2O)C[C@@H]2O[C@](O)(C[C@@H](O)C[C@@H](O)[C@H](O)CC[C@@H](O)C[C@@H](O)CC(=O)O[C@H]1C)C[C@H](O)[C@H]2NC(=O)NNC(=O)NC[C@H](O)CO [I-225]	< 3.70
C[C@@H]1[C@H](O)[C@@H](C)/C=C/C=C/C=C/C=C/C=C/C=C/C=C/[C@H](O[C@@H]2O[C@H](C)[C@@H](O)[C@H](N)[C@@H]2O)C[C@@H]2O[C@](O)(C[C@@H](O)C[C@@H](O)[C@H](O)CC[C@@H](O)C[C@@H](O)CC(=O)O[C@H]1C)C[C@H](O)[C@H]2NC(=O)NNc1ccc(C(F)(F)F)cn1 [I-125]	< 3.70
C[C@@H]1[C@H](O)[C@@H](C)/C=C/C=C/C=C/C=C/C=C/C=C/C=C/[C@H](O[C@@H]2O[C@H](C)[C@@H](O)[C@H](N)[C@@H]2O)C[C@@H]2O[C@](O)(C[C@@H](O)C[C@@H](O)[C@H](O)CC[C@@H](O)C[C@@H](O)CC(=O)O[C@H]1C)C[C@H](O)[C@H]2NC(=O)NNC(=O)NCC(N)=O [I-220]	< 3.70
CNC(=S)NNC(=O)N[C@H]1[C@@H]2C[C@@H](O[C@@H]3O[C@H](C)[C@@H](O)[C@H](N)[C@@H]3O)/C=C/C=C/C=C/C=C/C=C/C=C/C=C/[C@H](C)[C@@H](O)[C@@H](C)[C@H](C)OC(=O)C[C@H](O)C[C@H](O)CC[C@@H](O)[C@H](O)C[C@H](O)C[C@](O)(C[C@@H]1O)O2 [I-215]	< 3.70
C[C@@H]1[C@H](O)[C@@H](C)/C=C/C=C/C=C/C=C/C=C/C=C/C=C/[C@H](O[C@@H]2O[C@H](C)[C@@H](O)[C@H](N)[C@@H]2O)C[C@@H]2O[C@](O)(C[C@@H](O)C[C@@H](O)[C@H](O)CC[C@@H](O)C[C@@H](O)CC(=O)O[C@H]1C)C[C@H](O)[C@H]2NC(=O)NNC(=O)[C@H](O)[C@@H](O)[C@H](O)[C@H](O)CO [I-242]	< 3.70
C[C@@H]1[C@H](O)[C@@H](C)/C=C/C=C/C=C/C=C/C=C/C=C/C=C/[C@H](O[C@@H]2O[C@H](C)[C@@H](O)[C@H](N)[C@@H]2O)C[C@@H]2O[C@](O)(C[C@@H](O)C[C@@H](O)[C@H](O)CC[C@@H](O)C[C@@H](O)CC(=O)O[C@H]1C)C[C@H](O)[C@H]2NC(=O)NNC(=S)NCCCN1CCOCC1 [I-217]	< 3.70
C[C@@H]1[C@H](O)[C@@H](C)/C=C/C=C/C=C/C=C/C=C/C=C/C=C/[C@H](O[C@@H]2O[C@H](C)[C@@H](O)[C@H](N)[C@@H]2O)C[C@@H]2O[C@](O)(C[C@@H](O)C[C@@H](O)[C@H](O)CC[C@@H](O)C[C@@H](O)CC(=O)O[C@H]1C)C[C@H](O)[C@H]2NC(=O)NNC(=O)Nc1cccnn1 [I-224]	< 3.70
